Calls of active or inactive are those of the source.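 How the source made its calls: active means compounds giving half or more protection of infected cells from virus-caused growth loss, again on retest; inactive means the rest.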 Where a SMILES comes first, the peptide text is derived from it. The star is where a group is joined. Boc = CC(C)(C)OC(=O)*; OBn = c1ccc(CO*)cc1; Bn = c1ccc(C*)cc1
Test system: CEM cells HIV-1 protection, formazan growth assay
Experiment: NCI AIDS Antiviral Assay
Conditions: for IC50: measured here: growth of uninfected CEM cells
Method in brief: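 Steps: treat uninfected and HIV-1-infected human CEM cells at five drug levels; quantify growth by soluble formazan; retest any compound reaching 50% protection; classify actives from the retest.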

| Structure (SMILES) | EC50 [µM] | IC50 [µM] | outcome |
| --- | --- | --- | --- |
| CC(C)(C)c1ccccc1N1C(=O)c2ccc3c4c(ccc(c24)C1=O)N(c1ccccc1C(C)(C)C)C3=O | > 200 | > 200 | – |
| Cc1cn(C2CC(N=[N+]=[N-])C(COC(=O)CCCCCCCCCCOc3ccc(I)cc3)O2)c(=O)[nH]c1=O (stereo not drawn) | 0.117 | 17.8 | – |
| O=c1[nH]c(=O)n(C2C=CC(CO)O2)cc1F (stereo not drawn) | > 200 | > 200 | – |
| O=[N+]([O-])c1ccc(-c2csc(=[N+]3CCCCC3)s2)cc1 | – | – | inactive |
| CC#COP(=O)(OCC)OCC | > 251 | > 251 | – |
| N/C(=N\N=C\c1ccccn1)NO | > 200 | 33.1 | – |
| CCN(CC)CCC(=O)c1ccc(OC)cc1 | > 912 | 19.5 | – |
| CCOC1(OCC)N=C(N)C2(C#N)C3(C(=O)N(C(C)C)N=C3C)C12C#N (stereo not drawn) | > 200 | 166 | – |
| O=[N+]([O-])c1ccc(C2OC3CC4C5CCCC5C3C4O2)cc1 (stereo not drawn) | > 200 | 19.5 | – |
| O=C1Sc2ccc(Cl)cc2C(=O)N2CCSC12 (stereo not drawn) | > 50.1 | > 50.1 | – |
| CCOC(=O)C1C(c2ccc([N+](=O)[O-])cc2)NC(c2ccc([N+](=O)[O-])cc2)C(C(=O)OC)S1(=O)=O (stereo not drawn) | > 3.98 | > 3.98 | – |
| Nc1nc2c(ncn2Cc2ccccc2CCO)c(=O)[nH]1 | > 47.9 | > 47.9 | – |
| Cc1csc2n/c(=N/[N+](=O)[O-])sn12 | > 138 | 66.1 | – |
| COC(=O)C(CC(C)C)NC(=O)C(C)NC(=O)C(Cc1ccc(OCc2ccccc2)cc1)NC(=O)C(COCc1ccccc1)NC(=O)OC(C)(C)C (stereo not drawn) (Boc-S(Bn)Y(Bn)AL-OMe; configuration not given here) | > 200 | 83.2 | – |
| O=C(NC1C=Nc2ccc(Cl)cc2NC1=O)c1ccc2ccccc2c1 (stereo not drawn) | > 200 | > 200 | – |
| COc1cc(NS(C)(=O)=O)ccc1Nc1c2ccccc2nc2c1[nH]c1ccc(NC3OC(CO)C(O)C(O)C3O)cc12 (stereo not drawn) | > 0.12 | 0.0468 | – |
| CC1(C)CNC[C@@](C)(OCc2ccccc2)C(=O)[N-]C(C)(C)CNC[C@@](C)(OCc2ccccc2)C(=O)[N-]1.[Ni+2] | > 200 | 105 | – |
| Cc1c(C)c(C)c(-n2c(=O)n(C)c(=O)n2-c2cc(C(C)(C)C)cc(C(C)(C)C)c2O)c(C)c1C | > 200 | 13.2 | – |
| O=C1N[C@H](C(=O)O)[C@@H](c2ccc(OCc3ccccc3)cc2)O1 | > 200 | > 200 | – |
| CN1CCC2(CC1)OC(c1ccccc1)C(c1ccccc1)O2 (stereo not drawn) | > 200 | 115 | – |
| COc1ccc2c(c1)CCc1cnc(=S)[nH]c1-2 | > 40.7 | > 40.7 | – |
| O=C(Cc1ccc([N+](=O)[O-])c([N+](=O)[O-])c1CC(=O)C(=O)Nc1cc(Cl)ccc1Cl)C(=O)Nc1cc(Cl)ccc1Cl | > 47.9 | 9.33 | – |

| Structure (SMILES) | EC50 [µM] | IC50 [µM] | outcome |
| --- | --- | --- | --- |
| Cc1ccc(C(=O)Nc2ccc(CP(=O)(O)O)cc2CP(=O)(O)O)cc1NC(=O)c1cccc(N)c1 | > 200 | > 200 | – |
| N#Cc1nc(CCCCCN2C(=O)c3ccccc3C2=O)oc1N | > 200 | > 200 | – |
| COc1ncnc2c1ncn2C1OC(CO)(C(F)(F)F)C(O)C1O (stereo not drawn) | > 200 | > 200 | – |
| CN(C)CCn1nc(N)c2nc3cc(C(F)(F)F)ccc3nc21 | > 100 | 63.1 | – |
| COC(=O)c1cc(=O)n2c(c1C(C)=O)N(C)CC2 | > 427 | > 427 | – |
| O=C1C=C(NC(=O)C2CCCCC2)c2ncccc2C1=O | – | – | inactive |
| O=c1oc2c3ccc4ccccc4c3n(Cc3nc4ccccc4[nH]3)c2c2ccccc12 | > 8.32 | 4.68 | – |
| COc1cc(C2C=C(c3ccccc3)Oc3cc4c(cc32)OCO4)cc(OC)c1OC (stereo not drawn) | > 2 | 0.631 | – |
| OCC1OC(n2cnc3c(=S)nc[nH]c32)C(O)C1O (stereo not drawn) | > 871 | 617 | – |
| COc1cc2oc(-c3ccc(O)cc3)cc(=O)c2c(OC)c1OC | 97.7 | > 200 | – |
| Cc1cc(Cc2c(F)c(F)c(C(c3cc(C)no3)c3c(F)c(F)c(F)c(F)c3F)c(F)c2F)on1 (stereo not drawn) | > 200 | 3.39 | – |
| COc1ccc(-c2cc(=O)c3c(O)cc(C)cc3o2)cc1OC | > 200 | > 200 | – |
| CC(=O)NC(C(=O)N1CCCC1C(=O)OCc1ccccc1)C(C)C (stereo not drawn) (Ac-Val-Pro-OBn; configuration not given here) | > 200 | 112 | – |
| c1ccc(C2=C(c3ccccc3)P(c3ccccc3)C2)cc1 (stereo not drawn) | – | – | inactive |
| COc1ccc(CCNCCCC2c3ccccc3-c3ccccc32)cc1OC | > 87.1 | 4.9 | – |
| O=C(O)c1cccc(S(=O)(=O)c2ccc([N+](=O)[O-])cc2)c1 | > 200 | > 200 | – |
| O=c1c2c(oc3ccccc13)-c1ccccc1OC2 | > 200 | > 200 | – |
| CC1(C)CC2(C)OC(=N)C1(C#N)C2(C#N)C#N (stereo not drawn) | > 200 | 2.34 | – |
| Cc1cc(N=Nc2c(O)c3ccccc3[nH]c2=O)ccc1N=Nc1ccc(C(=O)N(C)C)cc1 | > 200 | 151 | – |
| [N-]=[N+]=NCCOCn1ccc(=O)[nH]c1=O | > 200 | > 200 | – |
| Cc1ccc2oc(=O)c(C#N)c(/C=C/c3cccc(Br)c3)c2c1 | > 100 | > 100 | – |
| CCc1cccc(NC(=O)c2cc(/C=C/c3ccccc3)[nH]c(=S)n2)c1 | > 347 | > 347 | – |

| Structure (SMILES) | EC50 [µM] | IC50 [µM] | outcome |
| --- | --- | --- | --- |
| OC(c1ccccc1)C1CC2C=CC1C2 (stereo not drawn) | – | – | inactive |
| COc1ccccc1C1(c2ccccc2OC)OC(=O)c2ccccc21 | > 200 | 30.9 | – |
| C1CCC(N2OC23CCCCC3)CC1 (stereo not drawn) | – | – | inactive |
| CC1=NN(c2ccccc2)C(=O)C1C(=O)C(=O)Nc1ccc(C)cc1C (stereo not drawn) | – | 102 | inactive |
| CC(C)C[S+]1C2=C([O-])CC(C)(C)CC2=Nc2ccccc21 (stereo not drawn) | > 200 | > 200 | – |
| Cc1ccc(S(=O)(=O)N(CCC(=O)O)c2ccccc2)cc1 | > 200 | > 200 | – |
| CC1CN=C(N(C(=O)Nc2ccccc2)c2ccccc2)S1 (stereo not drawn) | > 200 | > 200 | – |
| NC1C2(CCCCCC2)NC(=O)C12CCCCCC2 (stereo not drawn) | – | – | inactive |
| CC1(C)OC2=C(CC1Br)C(=O)C(=O)c1ccccc12 (stereo not drawn) | > 2 | 1.26 | – |
| O=C(CCC(=O)Nc1ccc(C2=NCCN2)cc1)Nc1ccc(C2=NCCN2)cc1 | 95.5 | 141 | – |
| COc1cccc(CCn2c(N)c(-c3cc(Cl)cc(Cl)c3)c3ccc([N+](=O)[O-])cc3c2=O)c1 | > 200 | 3.39 | – |
| COC(=O)[C@@H](NC(=O)N(Cc1ccccc1)C[C@H](CC(C)C)NC(=O)[C@@H](NC(=O)OC(C)(C)C)C(C)C)C(C)C | > 200 | > 100 | – |
| O=C(Nc1ccc([N+](=O)[O-])cn1)Nc1ccccc1F | > 200 | > 200 | – |
| O=[N+]([O-])c1ccccc1S(=O)(=O)Oc1ccccc1 | > 77.6 | 47.9 | – |
| O=C(CCc1n[nH]c(=S)o1)Nc1cc(Cl)c(Cl)cc1Cl | – | – | inactive |
| COc1cc2c(cc1OC)C[N+]1(C)CCc3cc(OC)c(OC)cc3C1C2 (stereo not drawn) | > 501 | > 501 | – |
| CC1=C[C@H]2O[C@@H]3C[C@H]4OC(=O)/C=C\C=C\C(C(C)O)OCC(O)C(C)CC(=O)OC[C@@]2(C[C@@H]1O)[C@]4(C)[C@@]31CO1 (stereo partly drawn) | > 2 | 0.0631 | – |
| C[C@H](N)C(O)C/C=C\CC(O)/C=C/C=C\C/C=C\C/C=C\C/C=C\CCCCCCC(O)[C@H](C)N (stereo partly drawn) | – | – | inactive |
| O=C1/C(=C\c2cccc(Oc3ccccc3)c2)S(=O)(=O)C(c2ccccc2)N1c1cccc(Cl)c1 (stereo not drawn) | > 200 | 12.9 | – |
| O=C1OC2(c3ccccc3Oc3ccccc32)c2ccccc21 | – | – | inactive |
| O=[N+]([O-])/C(Cl)=C(/C(Cl)=C(Cl)Cl)N1CCOCC1 | > 200 | 8.71 | – |
| CC(=O)Oc1c(C)c2c(c3ccccc13)OC(C)(C)C2 | > 200 | 24 | – |

| Structure (SMILES) | EC50 [µM] | IC50 [µM] | outcome |
| --- | --- | --- | --- |
| O=S(=O)(OCCSS(=O)(=O)c1ccccc1)c1ccccc1 | > 437 | > 437 | – |
| NCCCN=c1ccc2c3c1c(O)c1c(O)ccc(=O)c1c3[nH]n2CCNCCO | > 525 | 1.07 | – |
| CC1(C)OP(=O)(c2ccccc2)C=C1Br (stereo not drawn) | > 200 | > 200 | – |
| Fc1cccc(C2ON=C(c3ccccc3)N2C23CC4CC(CC(C4)C2)C3)c1 (stereo not drawn) | > 200 | > 200 | – |
| COc1ccc(NS(=O)CCCc2ccccc2)cc1 (stereo not drawn) | > 200 | 16.6 | – |
| CCOC(=O)c1nc2ccccc2n(CC)c1=O | > 200 | 79.4 | – |
| C=C1CN(C2=NCCO2)C1 | > 200 | > 200 | – |
| [B]C(=O)NC(CC(C)C)C(=O)NC1c2ccsc2C(=O)C1O (stereo not drawn) (tested in a mixture with another compound) | > 200 | > 200 | – |
| N#C/C(C(=O)NCc1ccccc1)=C(/N)N1CCCC1 | > 200 | > 200 | – |
| CCOC(=O)C(C)S(=O)(=O)O (stereo not drawn) | > 200 | > 200 | – |
| CC1=C2CC[C@@]3(C)C(=CCC3O)C2(C)CCC1=O (stereo partly drawn) | – | – | inactive |
| CN(C)CCOCn1nnc2ccccc21 | – | – | inactive |
| Nc1ccc2c(c1)C(=P(c1ccccc1)(c1ccccc1)c1ccccc1)c1ccccc1-2 | > 200 | 10.7 | – |
| O=c1[nH]cnc2[nH]ncc12 | > 200 | > 200 | – |
| COC(=O)C1=CCS(=O)(=O)C1 | > 1410 | 178 | – |
| Cc1ccc(-n2c(=O)c3nn4c(=O)n(-c5ccc(C)cc5)c(=O)c4nn3c2=O)cc1 | > 200 | > 200 | – |
| O=C(O)c1nc2ccccc2nc1NCc1ccc(F)cc1 | > 200 | 56.2 | – |
| c1ccc(-c2c(-c3cccs3)[nH]c(-c3cccs3)c2-c2ccccn2)nc1 | > 38 | 25.7 | – |
| CCOC(=O)NC(C(=O)OCC)C(F)(F)F (stereo not drawn) | > 200 | 102 | – |
| Nc1ncnc2c1ccn2CC#CCO | > 200 | > 200 | – |
| CCCCCCCCCC1(N=[N+]=[N-])C(=O)c2ccccc2N(C)C1=O (stereo not drawn) | > 200 | 33.9 | – |
